In ChEMBL document CHEMBL5291721, “A preclinical secondary pharmacology resource illuminates target-adverse drug reaction associations of marketed drugs” (Nat Commun, 2023):

Tests used:
[1] = target: T1, Alpha-1A adrenergic receptor (Homo sapiens, UniProt P35348); type: functional, cell-based
T1 sequence (P35348 whole entry): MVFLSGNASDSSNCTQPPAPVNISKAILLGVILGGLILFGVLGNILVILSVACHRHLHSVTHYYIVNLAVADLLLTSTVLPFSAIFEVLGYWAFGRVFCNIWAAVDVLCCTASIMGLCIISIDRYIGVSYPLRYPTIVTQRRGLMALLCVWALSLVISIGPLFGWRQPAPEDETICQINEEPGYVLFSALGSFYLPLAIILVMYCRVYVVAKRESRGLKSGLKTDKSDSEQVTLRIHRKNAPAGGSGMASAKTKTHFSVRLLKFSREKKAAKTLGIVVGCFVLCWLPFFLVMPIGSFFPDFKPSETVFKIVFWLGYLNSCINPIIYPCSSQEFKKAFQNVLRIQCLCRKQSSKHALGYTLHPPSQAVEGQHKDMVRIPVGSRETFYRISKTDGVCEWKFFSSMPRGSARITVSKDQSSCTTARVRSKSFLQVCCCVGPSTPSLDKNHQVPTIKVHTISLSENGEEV

[2] = target: Vascular endothelial growth factor receptor 2 (Homo sapiens, UniProt P35968); type: functional
Sequence of Vascular endothelial growth factor receptor 2 (P35968 whole entry): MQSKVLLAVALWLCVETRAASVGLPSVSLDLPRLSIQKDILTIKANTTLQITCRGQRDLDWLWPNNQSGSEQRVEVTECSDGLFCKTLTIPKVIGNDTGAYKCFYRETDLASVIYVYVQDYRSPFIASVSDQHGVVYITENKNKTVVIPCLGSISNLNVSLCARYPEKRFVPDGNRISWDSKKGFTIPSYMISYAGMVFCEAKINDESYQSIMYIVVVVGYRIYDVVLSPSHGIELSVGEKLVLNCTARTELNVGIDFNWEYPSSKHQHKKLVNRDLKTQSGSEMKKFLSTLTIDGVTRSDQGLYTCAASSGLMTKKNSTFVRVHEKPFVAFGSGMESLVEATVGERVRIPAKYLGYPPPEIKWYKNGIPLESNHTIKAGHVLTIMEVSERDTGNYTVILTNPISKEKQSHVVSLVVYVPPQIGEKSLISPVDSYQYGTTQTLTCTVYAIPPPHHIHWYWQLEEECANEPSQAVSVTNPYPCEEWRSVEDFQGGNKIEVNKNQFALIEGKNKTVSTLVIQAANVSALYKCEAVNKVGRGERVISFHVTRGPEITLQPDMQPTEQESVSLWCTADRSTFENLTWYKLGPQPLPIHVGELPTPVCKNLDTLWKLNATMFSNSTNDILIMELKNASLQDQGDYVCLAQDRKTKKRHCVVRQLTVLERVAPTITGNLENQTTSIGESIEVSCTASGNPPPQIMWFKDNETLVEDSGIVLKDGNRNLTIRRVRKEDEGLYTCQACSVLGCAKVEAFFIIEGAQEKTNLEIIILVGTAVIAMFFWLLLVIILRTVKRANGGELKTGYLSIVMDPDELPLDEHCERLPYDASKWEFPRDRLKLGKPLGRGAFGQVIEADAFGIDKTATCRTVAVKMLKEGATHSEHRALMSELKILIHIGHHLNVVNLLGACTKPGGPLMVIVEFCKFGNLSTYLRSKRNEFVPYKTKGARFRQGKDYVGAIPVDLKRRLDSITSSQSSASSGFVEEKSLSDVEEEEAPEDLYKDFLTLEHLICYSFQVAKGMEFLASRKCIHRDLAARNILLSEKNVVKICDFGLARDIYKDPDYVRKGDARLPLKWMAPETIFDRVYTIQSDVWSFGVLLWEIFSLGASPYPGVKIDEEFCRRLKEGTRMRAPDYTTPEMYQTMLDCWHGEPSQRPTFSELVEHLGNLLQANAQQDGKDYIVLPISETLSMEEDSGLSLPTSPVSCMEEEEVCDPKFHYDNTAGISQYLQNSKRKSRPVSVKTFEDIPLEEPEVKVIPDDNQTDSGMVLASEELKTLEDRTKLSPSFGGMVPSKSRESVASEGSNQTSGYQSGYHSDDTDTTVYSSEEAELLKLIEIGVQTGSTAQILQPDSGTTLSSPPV

Endothelin-1 receptor = target: T2, Endothelin-1 receptor (Homo sapiens, UniProt P25101)
T2 sequence (P25101 whole entry): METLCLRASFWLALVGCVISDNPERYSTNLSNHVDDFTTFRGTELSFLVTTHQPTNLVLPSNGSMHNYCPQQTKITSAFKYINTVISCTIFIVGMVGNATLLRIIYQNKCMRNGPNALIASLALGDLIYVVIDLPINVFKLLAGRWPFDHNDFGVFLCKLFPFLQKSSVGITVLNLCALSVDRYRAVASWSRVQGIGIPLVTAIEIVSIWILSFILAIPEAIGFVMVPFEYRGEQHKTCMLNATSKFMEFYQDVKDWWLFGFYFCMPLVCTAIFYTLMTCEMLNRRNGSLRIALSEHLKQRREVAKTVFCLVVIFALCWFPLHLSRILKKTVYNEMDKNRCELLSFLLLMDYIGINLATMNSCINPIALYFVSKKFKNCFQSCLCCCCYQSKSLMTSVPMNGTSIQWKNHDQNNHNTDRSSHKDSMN

[3] = target: Glutamate receptor ionotropic, NMDA 1 (Rattus norvegicus, UniProt P35439)
[4] = target: T3, 5-hydroxytryptamine receptor 3A (Homo sapiens, UniProt P46098); type: functional
T3 sequence (P46098 whole entry): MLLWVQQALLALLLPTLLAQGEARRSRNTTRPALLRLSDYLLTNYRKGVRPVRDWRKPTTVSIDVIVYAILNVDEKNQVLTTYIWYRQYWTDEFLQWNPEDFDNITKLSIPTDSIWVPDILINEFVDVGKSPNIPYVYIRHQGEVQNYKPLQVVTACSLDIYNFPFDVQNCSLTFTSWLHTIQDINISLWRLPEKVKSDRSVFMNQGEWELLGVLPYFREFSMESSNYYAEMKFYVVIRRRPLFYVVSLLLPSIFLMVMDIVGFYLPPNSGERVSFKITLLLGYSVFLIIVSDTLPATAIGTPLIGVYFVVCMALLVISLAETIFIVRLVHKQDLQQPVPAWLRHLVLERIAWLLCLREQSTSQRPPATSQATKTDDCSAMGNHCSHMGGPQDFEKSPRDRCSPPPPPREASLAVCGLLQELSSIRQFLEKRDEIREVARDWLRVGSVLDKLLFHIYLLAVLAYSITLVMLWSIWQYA

[5] = target: Kappa-type opioid receptor (Homo sapiens, UniProt P41145)
Sequence of Kappa-type opioid receptor (P41145 whole entry): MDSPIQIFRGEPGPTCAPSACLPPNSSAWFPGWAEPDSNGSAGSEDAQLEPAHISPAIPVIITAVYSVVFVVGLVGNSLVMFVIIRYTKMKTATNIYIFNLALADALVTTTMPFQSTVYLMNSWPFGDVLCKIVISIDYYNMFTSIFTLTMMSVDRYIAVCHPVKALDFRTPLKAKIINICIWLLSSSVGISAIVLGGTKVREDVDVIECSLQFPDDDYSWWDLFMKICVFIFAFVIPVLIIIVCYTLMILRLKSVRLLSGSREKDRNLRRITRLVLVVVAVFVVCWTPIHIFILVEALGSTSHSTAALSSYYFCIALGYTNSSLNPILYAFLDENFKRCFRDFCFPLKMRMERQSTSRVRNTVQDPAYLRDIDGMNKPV

[6] = target: T4, Equilibrative nucleoside transporter 1 (Homo sapiens, UniProt Q99808)
T4 sequence (Q99808 whole entry): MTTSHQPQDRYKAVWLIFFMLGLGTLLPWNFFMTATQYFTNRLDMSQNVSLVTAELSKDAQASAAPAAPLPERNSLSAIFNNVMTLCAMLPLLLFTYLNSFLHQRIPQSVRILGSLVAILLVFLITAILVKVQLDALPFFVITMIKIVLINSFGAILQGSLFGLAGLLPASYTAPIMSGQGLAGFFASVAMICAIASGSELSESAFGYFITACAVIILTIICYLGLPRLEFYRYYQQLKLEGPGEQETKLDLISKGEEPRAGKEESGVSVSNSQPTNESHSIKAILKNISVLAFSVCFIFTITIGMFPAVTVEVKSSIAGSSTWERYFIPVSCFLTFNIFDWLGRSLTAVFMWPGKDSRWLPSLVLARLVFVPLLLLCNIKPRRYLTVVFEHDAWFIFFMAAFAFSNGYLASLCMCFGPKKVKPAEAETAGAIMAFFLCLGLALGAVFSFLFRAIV

[7] = target: T5, Amine oxidase [flavin-containing] A (Homo sapiens, UniProt P21397); type: functional
T5 sequence (P21397 whole entry): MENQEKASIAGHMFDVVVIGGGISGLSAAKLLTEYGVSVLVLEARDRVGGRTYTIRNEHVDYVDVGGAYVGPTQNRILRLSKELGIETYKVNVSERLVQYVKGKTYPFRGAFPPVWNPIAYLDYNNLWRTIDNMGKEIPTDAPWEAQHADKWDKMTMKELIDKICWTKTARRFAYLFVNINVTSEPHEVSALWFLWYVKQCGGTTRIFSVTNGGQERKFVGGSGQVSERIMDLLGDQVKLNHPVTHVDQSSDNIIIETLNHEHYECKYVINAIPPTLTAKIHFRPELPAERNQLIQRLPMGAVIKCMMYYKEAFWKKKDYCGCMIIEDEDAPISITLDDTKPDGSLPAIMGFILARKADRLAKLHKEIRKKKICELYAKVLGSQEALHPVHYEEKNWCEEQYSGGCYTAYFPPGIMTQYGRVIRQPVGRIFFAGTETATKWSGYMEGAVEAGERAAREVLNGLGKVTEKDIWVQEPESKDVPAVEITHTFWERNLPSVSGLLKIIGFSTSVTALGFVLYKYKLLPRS
Note: assay procedure not described here.

Compound | AC50 [1] | AC50 [2] | AC50 (Endothelin-1 receptor) | AC50 [3] | AC50 [4] | AC50 [5] | AC50 [6] | AC50 [7]
O=C(O)c1cc(/N=N/c2ccc(O)c(C(=O)O)c2)ccc1O [OLSALAZINE] | > 30 µM | 12.3 µM | – | – | – | – | – | –
FC(F)(F)c1ccc(CNc2ccc(Cc3c[nH]c4ncc(Cl)cc34)cn2)cn1 [PEXIDARTINIB] | 1.8 µM | 0.131 µM | – | – | – | – | – | –
CC(C)C[C@H](NC(=O)CNC(=O)c1cc(Cl)ccc1Cl)B(O)O [IXAZOMIB] | > 30 µM | > 30 µM | – | – | – | – | – | –
CC(CN1CC(=O)NC(=O)C1)N1CC(=O)NC(=O)C1 (stereo unspecified) [RAZOXANE] | > 30 µM | > 30 µM | – | – | – | – | – | –
O=C1/C(=C2\Nc3ccc(S(=O)(=O)O)cc3C2=O)Nc2ccc(S(=O)(=O)O)cc21 [INDIGOTINDISULFONATE] | > 30 µM | 3.05 µM | – | – | – | – | – | –
OC[C@H]1O[C@@H](c2ccc(F)c(Cc3cc4ccccc4s3)c2)[C@H](O)[C@@H](O)[C@@H]1O [IPRAGLIFLOZIN] | 22.2 µM | – | – | – | – | – | – | –
CC(C(=O)O)c1ccc2c(c1)[nH]c1ccc(Cl)cc12 (stereo unspecified) [CARPROFEN] | – | – | > 10 µM | > 10 µM | > 30 µM | > 10 µM | > 30 µM | > 10 µM
CCn1cc(C(=O)O)c(=O)c2cc3c(cc21)OCO3 [OXOLINIC ACID] | > 30 µM | > 30 µM | – | – | – | – | – | –
CC[C@H](c1ccc(O)cc1)[C@@H](CC)c1ccc(O)cc1 [HEXESTROL] | > 3 µM | > 30 µM | – | – | – | – | – | –
CCOC(=O)C1=C[C@@H](OC(CC)CC)[C@H](NC(C)=O)[C@@H](N)C1 [OSELTAMIVIR] | > 30 µM | > 30 µM | – | – | – | – | – | –
CN1CCC(=C2c3ccccc3Sc3ccccc32)CC1 [PIMETHIXENE] | 0.121 µM | > 30 µM | – | – | – | – | – | –
O=C1CN(/N=C/c2ccc(-c3ccc([N+](=O)[O-])cc3)o2)C(O)=N1 [DANTROLENE] | – | – | – | > 10 µM | > 30 µM | > 10 µM | > 10 µM | > 10 µM
C[C@H]1O[C@@H](n2cc(F)c(=O)[nH]c2=O)[C@H](O)[C@@H]1O [DOXIFLURIDINE] | > 30 µM | > 30 µM | – | – | – | – | – | –
CCc1nc(C(N)=O)c(Nc2ccc(N3CCC(N4CCN(C)CC4)CC3)c(OC)c2)nc1NC1CCOCC1 [GILTERITINIB] | > 0.3 µM | – | – | – | – | – | – | –
CC[C@H]1OC(=O)[C@H](C)C(=O)[C@H](C)[C@@H](O[C@@H]2O[C@H](C)C[C@H](N(C)C)[C@H]2O)[C@](C)(OC)C[C@@H](C)C(=O)[C@H](C)[C@H]2N(CCCCn3cnc(-c4cccnc4)c3)C(=O)O[C@]12C [TELITHROMYCIN] | > 30 µM | > 30 µM | – | – | – | – | – | –
CN1CCCCC1CCN1c2ccccc2Sc2ccc([S+](C)[O-])cc21 (stereo unspecified) [MESORIDAZINE] | 0.0171 µM | > 30 µM | – | – | – | – | – | –
N[C@@H](CO)C(=O)O [SERINE] | > 30 µM | > 30 µM | – | – | – | – | – | –

Compound | AC50 [1] | AC50 [2] | AC50 (Endothelin-1 receptor) | AC50 [3] | AC50 [4] | AC50 [5] | AC50 [6] | AC50 [7]
CC(=O)O[C@]1(C(C)=O)CC[C@H]2[C@@H]3C=C(C)C4=CC(=O)CC[C@@H]4[C@H]3CC[C@@]21C [NOMEGESTROL ACETATE] | > 10 µM | – | – | > 10 µM | > 30 µM | > 30 µM | > 30 µM | > 30 µM
C#C[C@]1(O)CC[C@H]2[C@@H]3CCC4=CC(=O)CC[C@@H]4[C@H]3C(=C)C[C@@]21CC [ETONOGESTREL] | – | – | – | > 30 µM | > 30 µM | > 30 µM | – | > 30 µM
OC[C@H]1O[C@@H](c2ccc(Cl)c(Cc3ccc(O[C@H]4CCOC4)cc3)c2)[C@H](O)[C@@H](O)[C@@H]1O [EMPAGLIFLOZIN] | > 30 µM | > 30 µM | – | – | – | – | – | –
CC(=O)Oc1cc(C(F)(F)F)ccc1C(=O)O [TRIFLUSAL] | > 30 µM | > 30 µM | – | – | – | – | – | –
[H]/N=C(\N/C(=N/[H])Nc1ccc(Cl)cc1)NC(C)C [PROGUANIL] | > 30 µM | > 30 µM | – | – | – | – | – | –
CN(C)CC[C@@H](c1ccc(Cl)cc1)c1ccccn1 [DEXCHLORPHENIRAMINE] | – | – | > 30 µM | > 30 µM | > 30 µM | 12 µM | > 30 µM | > 30 µM
O=C1C(CC[S+]([O-])c2ccccc2)C(=O)N(c2ccccc2)N1c1ccccc1 (stereo unspecified) [SULFINPYRAZONE] | – | – | – | > 10 µM | > 30 µM | > 10 µM | > 10 µM | > 10 µM
CCN(CC)CCNC(=O)c1c(C)[nH]c(/C=C2\C(=O)Nc3ccc(F)cc32)c1C [SUNITINIB] | – | – | 8.3 µM | > 30 µM | – | 10.3 µM | 5 µM | > 30 µM
O=C1CCc2cc(OCCCCc3nnnn3C3CCCCC3)ccc2N1 [CILOSTAZOL] | – | – | > 30 µM | > 30 µM | > 30 µM | 3.06 µM | 30 µM | > 30 µM
COc1ccc(CC2c3cc(OC)c(OC)cc3CC[N+]2(C)CCC(=O)OCCCCCOC(=O)CC[N+]2(C)CCc3cc(OC)c(OC)cc3C2Cc2ccc(OC)c(OC)c2)cc1OC (stereo unspecified) | – | – | – | > 30 µM | > 30 µM | 22 µM | > 30 µM | > 30 µM
CN1C(C(=O)Nc2ccccn2)=C(O)c2ccccc2S1(=O)=O [PIROXICAM] | – | – | – | > 10 µM | > 30 µM | > 10 µM | > 10 µM | > 30 µM
C=C[C@H]1C[N@@]2CC[C@H]1C[C@@H]2[C@@H](O)c1ccnc2ccc(OC)cc12 [QUINIDINE] | – | – | – | > 10 µM | > 30 µM | 4 µM | > 30 µM | > 10 µM
C[C@]12C=CC(=O)N[C@@H]1CC[C@@H]1[C@@H]2CC[C@]2(C)[C@@H](C(=O)Nc3cc(C(F)(F)F)ccc3C(F)(F)F)CC[C@@H]12 [DUTASTERIDE] | – | – | – | > 10 µM | > 30 µM | > 10 µM | > 10 µM | > 10 µM
CC(CCc1ccccc1)NCC(O)c1ccc(O)c(C(N)=O)c1 (stereo unspecified) [LABETALOL] | – | > 30 µM | – | – | – | – | – | –
CC(C)(C)NCC(O)c1cc(O)cc(O)c1 (stereo unspecified) [TERBUTALINE] | – | – | > 30 µM | – | – | – | > 30 µM | –
CC(C)N(CCC(C(N)=O)(c1ccccc1)c1ccccn1)C(C)C (stereo unspecified) [DISOPYRAMIDE] | – | – | > 30 µM | > 10 µM | > 30 µM | 6.73 µM | > 30 µM | > 10 µM
CC(N)C12CC3CC(CC(C3)C1)C2 (stereo unspecified) [RIMANTADINE] | – | – | – | > 10 µM | > 30 µM | > 10 µM | > 10 µM | > 10 µM
